Experimental data reported in patent publication US4401604A, “Process for preparing thiosulfenamide derivatives of N-phosphonomethylglycine triesters” (Monsanto Company, priority 1981, dated 1983).

Columns and labels:
Type in all cases: in vivo
Quackgrass [1] = test: Pre-emergent herbicidal activity; settings: Table III; 11.2 kg/h; 2 WAT
Excerpt: (§1) A good grade of top soil is placed in aluminum pans and compacted to a depth of 0.95 to 1.27 cm. from the top of each pan. A predetermined number of seeds or vegetative propagules of each of several plant species are placed on top of the soil in each pan and then pressed down. Herbicidal compositions prepared as in the previous example are applied by admixture with or incorporation in the top layer of soil.
(§2) In this method, the soil required to cover the seeds and propagules is weighed and admixed with a herbicidal composition containing a known amount of the active ingredient (compound of this invention). The pans are then filled with the admixture and leveled. Watering is carried out by permitting the soil in the pans to absorb moisture through apertures in the pan bottoms. The seed and propagule containing pans are placed on a wet sand bench and maintained for approximately two weeks under ordinary conditions of sunlight and watering. At the end of this period, the number of emerged plants of each species is noted and compared to an untreated control.
(§3) The pre-emergent herbicidal activity index used below is based upon average percent control of each species as follows:
(§4) Plant species in the table are identified by the same code letters used in the previous example.

Lambsquarters [2] = test: Pre-emergent herbicidal activity; settings: Table III; 11.2 kg/h; 2 WAT
Excerpt: as §1, §2, §3, §4

Yellow Nutsedge [3] = test: Pre-emergent herbicidal activity; settings: Table III; 11.2 kg/h; 2 WAT
Excerpt: as §1, §2, §3, §4

Barnyardgrass [4] = test: Pre-emergent herbicidal activity; settings: Table III; 11.2 kg/h; 2 WAT
Excerpt: as §1, §2, §3, §4

Velvetleaf [5] = test: Pre-emergent herbicidal activity; settings: Table III; 11.2 kg/h; 2 WAT
Excerpt: as §1, §2, §3, §4

Cocklebur [6] = test: Pre-emergent herbicidal activity; settings: Table III; 11.2 kg/h; 2 WAT
Excerpt: as §1, §2, §3, §4

Morningglory [7] = test: Pre-emergent herbicidal activity; settings: Table III; 11.2 kg/h; 2 WAT
Excerpt: as §1, §2, §3, §4

Smartweed [8] = test: Pre-emergent herbicidal activity; settings: Table III; 11.2 kg/h; 2 WAT
Excerpt: as §1, §2, §3, §4

Johnsongrass [9] = test: Pre-emergent herbicidal activity; settings: Table III; 11.2 kg/h; 2 WAT
Excerpt: as §1, §2, §3, §4

Canada Thistle [10] = test: Pre-emergent herbicidal activity; settings: Table III; 11.2 kg/h; 2 WAT
Excerpt: as §1, §2, §3, §4

Downy Brome [11] = test: Pre-emergent herbicidal activity; settings: Table III; 11.2 kg/h; 2 WAT
Excerpt: as §1, §2, §3, §4

Quackgrass [12] = test: Post-emergence herbicidal activity, greenhouse; settings: Table I, 4 WAT
Summary of the method: (§5)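 2–3-week-old plants, post-emergence atomizer spray, ~0.4% emulsifier; candidate from 1.0% stock in acetone, THF or water. Greenhouse hold; injury vs control at ~2/4 WAT.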

Lambsquarters [13] = test: Post-emergence herbicidal activity, greenhouse; settings: 4 WAT
Summary of the method: as §5

Yellow Nutsedge [14] = test: Post-emergence herbicidal activity, greenhouse; settings: Table I, 4 WAT
Summary of the method: as §5

Barnyardgrass [15] = test: Post-emergence herbicidal activity, greenhouse; settings: 4 WAT
Summary of the method: as §5

Soybean = test: Post-emergence herbicidal activity, greenhouse; settings: Table II, 4 WAT
Summary of the method: as §5

Velvetleaf [16] = test: Post-emergence herbicidal activity, greenhouse; settings: 4 WAT
Summary of the method: as §5

Rice = test: Post-emergence herbicidal activity, greenhouse; settings: Table II, 4 WAT
Summary of the method: as §5

Wheat = test: Post-emergence herbicidal activity, greenhouse; settings: Table II, 4 WAT
Summary of the method: as §5

Cocklebur [17] = test: Post-emergence herbicidal activity, greenhouse; settings: 4 WAT
Summary of the method: as §5

Wild Buckwheat = test: Post-emergence herbicidal activity, greenhouse; settings: Table II, 4 WAT
Summary of the method: as §5

Morningglory [18] = test: Post-emergence herbicidal activity, greenhouse; settings: 4 WAT
Summary of the method: as §5

Smartweed [19] = test: Post-emergence herbicidal activity, greenhouse; settings: 4 WAT
Summary of the method: as §5

Sorghum = test: Post-emergence herbicidal activity, greenhouse; settings: Table II, 4 WAT
Summary of the method: as §5

Hemp Sesbania = test: Post-emergence herbicidal activity, greenhouse; settings: Table II, 4 WAT
Summary of the method: as §5

Panicum Spp = test: Post-emergence herbicidal activity, greenhouse; settings: Table II, 4 WAT
Summary of the method: as §5

Johnsongrass [20] = test: Post-emergence herbicidal activity, greenhouse; settings: Table I, 4 WAT
Summary of the method: as §5

Crabgrass = test: Post-emergence herbicidal activity, greenhouse; settings: Table II, 4 WAT
Summary of the method: as §5

Sugar Beet = test: Post-emergence herbicidal activity, greenhouse; settings: Table II, 4 WAT
Summary of the method: as §5

Canada Thistle [21] = test: Post-emergence herbicidal activity, greenhouse; settings: Table I, 4 WAT
Summary of the method: as §5

Downy Brome [22] = test: Post-emergence herbicidal activity, greenhouse; settings: 4 WAT
Summary of the method: as §5

CCCCCCCCSSN(CC(=O)OC)CP(=O)(Oc1ccccc1)Oc1ccccc1 [II, Glycine, N-[(diphenoxyphosphinyl)methyl]-N-(octyldithio)-, methyl ester]
pre-emergent herbicidal activity index (Quackgrass [1]): 0 (0-24% control) | pre-emergent herbicidal activity index (Lambsquarters [2]): 0 (0-24% control) | pre-emergent herbicidal activity index (Yellow Nutsedge [3]): 0 (0-24% control) | pre-emergent herbicidal activity index (Barnyardgrass [4]): 0 (0-24% control) | pre-emergent herbicidal activity index (Velvetleaf [5]): 0 (0-24% control) | pre-emergent herbicidal activity index (Cocklebur [6]): 0 (0-24% control) | pre-emergent herbicidal activity index (Morningglory [7]): 0 (0-24% control) | pre-emergent herbicidal activity index (Smartweed [8]): 0 (0-24% control) | pre-emergent herbicidal activity index (Johnsongrass [9]): 2 (50-74% control) | pre-emergent herbicidal activity index (Canada Thistle [10]): 1 (25-49% control) | pre-emergent herbicidal activity index (Downy Brome [11]): 0 (0-24% control) | post-emergence herbicidal activity index (Quackgrass [12]; 5.6 kg/h): 3 (75-99% control) | post-emergence herbicidal activity index (Quackgrass [12]; 11.2 kg/h): 1 (25-49% control) | post-emergence herbicidal activity index (Lambsquarters [13]; Table I, 5.6 kg/h): 3 (75-99% control) | post-emergence herbicidal activity index (Lambsquarters [13]; Table I, 11.2 kg/h): 4 (100% control) | post-emergence herbicidal activity index (Lambsquarters [13]; Table II, 0.28 kg/h): 0 (0- 24% control) | post-emergence herbicidal activity index (Lambsquarters [13]; Table II, 1.12 kg/h): 2 (50-74% control) | post-emergence herbicidal activity index (Lambsquarters [13]; Table II, 5.6 kg/h): 3 (75-99% control) | post-emergence herbicidal activity index (Yellow Nutsedge [14]; 5.6 kg/h): 1 (25-49% control) | post-emergence herbicidal activity index (Yellow Nutsedge [14]; 11.2 kg/h): 2 (50-74% control) | post-emergence herbicidal activity index (Barnyardgrass [15]; Table I, 5.6 kg/h): 2 (50-74% control) | post-emergence herbicidal activity index (Barnyardgrass [15]; Table I, 11.2 kg/h): 2 (50-74% control) | post-emergence herbicidal activity index (Barnyardgrass [15]; Table II, 0.28 kg/h): 0 (0- 24% control) | post-emergence herbicidal activity index (Barnyardgrass [15]; Table II, 1.12 kg/h): 1 (25-49% control) | post-emergence herbicidal activity index (Barnyardgrass [15]; Table II, 5.6 kg/h): 3 (75-99% control) | post-emergence herbicidal activity index (Soybean; 0.28 kg/h): 0 (0- 24% control) | post-emergence herbicidal activity index (Soybean; 1.12 kg/h): 0 (0- 24% control) | post-emergence herbicidal activity index (Soybean; 5.6 kg/h): 2 (50-74% control) | post-emergence herbicidal activity index (Velvetleaf [16]; Table I, 5.6 kg/h): 1 (25-49% control) | post-emergence herbicidal activity index (Velvetleaf [16]; Table I, 11.2 kg/h): 3 (75-99% control) | post-emergence herbicidal activity index (Velvetleaf [16]; Table II, 0.28 kg/h): 0 (0- 24% control) | post-emergence herbicidal activity index (Velvetleaf [16]; Table II, 1.12 kg/h): 0 (0- 24% control) | post-emergence herbicidal activity index (Velvetleaf [16]; Table II, 5.6 kg/h): 2 (50-74% control) | post-emergence herbicidal activity index (Rice; 0.28 kg/h): 0 (0- 24% control) | post-emergence herbicidal activity index (Rice; 1.12 kg/h): 1 (25-49% control) | post-emergence herbicidal activity index (Rice; 5.6 kg/h): 3 (75-99% control) | post-emergence herbicidal activity index (Wheat; 0.28 kg/h): 0 (0- 24% control) | post-emergence herbicidal activity index (Wheat; 1.12 kg/h): 0 (0- 24% control) | post-emergence herbicidal activity index (Wheat; 5.6 kg/h): 3 (75-99% control) | post-emergence herbicidal activity index (Cocklebur [17]; Table I, 5.6 kg/h): 4 (100% control) | post-emergence herbicidal activity index (Cocklebur [17]; Table I, 11.2 kg/h): 3 (75-99% control) | post-emergence herbicidal activity index (Cocklebur [17]; Table II, 0.28 kg/h): 0 (0- 24% control) | post-emergence herbicidal activity index (Cocklebur [17]; Table II, 1.12 kg/h): 1 (25-49% control) | post-emergence herbicidal activity index (Cocklebur [17]; Table II, 5.6 kg/h): 3 (75-99% control) | post-emergence herbicidal activity index (Wild Buckwheat; 0.28 kg/h): 0 (0- 24% control) | post-emergence herbicidal activity index (Wild Buckwheat; 1.12 kg/h): 0 (0- 24% control) | post-emergence herbicidal activity index (Wild Buckwheat; 5.6 kg/h): 3 (75-99% control) | post-emergence herbicidal activity index (Morningglory [18]; Table I, 5.6 kg/h): 2 (50-74% control) | post-emergence herbicidal activity index (Morningglory [18]; Table I, 11.2 kg/h): 2 (50-74% control) | post-emergence herbicidal activity index (Morningglory [18]; Table II, 0.28 kg/h): 1 (25-49% control) | post-emergence herbicidal activity index (Morningglory [18]; Table II, 1.12 kg/h): 1 (25-49% control) | post-emergence herbicidal activity index (Morningglory [18]; Table II, 5.6 kg/h): 3 (75-99% control) | post-emergence herbicidal activity index (Smartweed [19]; Table I, 5.6 kg/h): 2 (50-74% control) | post-emergence herbicidal activity index (Smartweed [19]; Table I, 11.2 kg/h): 4 (100% control) | post-emergence herbicidal activity index (Smartweed [19]; Table II, 0.28 kg/h): 0 (0- 24% control) | post-emergence herbicidal activity index (Smartweed [19]; Table II, 1.12 kg/h): 1 (25-49% control) | post-emergence herbicidal activity index (Smartweed [19]; Table II, 5.6 kg/h): 2 (50-74% control) | post-emergence herbicidal activity index (Sorghum; 0.28 kg/h): 0 (0- 24% control) | post-emergence herbicidal activity index (Sorghum; 1.12 kg/h): 1 (25-49% control) | post-emergence herbicidal activity index (Sorghum; 5.6 kg/h): 3 (75-99% control) | post-emergence herbicidal activity index (Hemp Sesbania; 0.28 kg/h): 0 (0- 24% control) | post-emergence herbicidal activity index (Hemp Sesbania; 1.12 kg/h): 0 (0- 24% control) | post-emergence herbicidal activity index (Hemp Sesbania; 5.6 kg/h): 1 (25-49% control) | post-emergence herbicidal activity index (Panicum Spp; 0.28 kg/h): 0 (0- 24% control) | post-emergence herbicidal activity index (Panicum Spp; 1.12 kg/h): 0 (0- 24% control) | post-emergence herbicidal activity index (Panicum Spp; 5.6 kg/h): 3 (75-99% control) | post-emergence herbicidal activity index (Johnsongrass [20]; 5.6 kg/h): 3 (75-99% control) | post-emergence herbicidal activity index (Johnsongrass [20]; 11.2 kg/h): 3 (75-99% control) | post-emergence herbicidal activity index (Crabgrass; 0.28 kg/h): 0 (0- 24% control) | post-emergence herbicidal activity index (Crabgrass; 1.12 kg/h): 2 (50-74% control) | post-emergence herbicidal activity index (Crabgrass; 5.6 kg/h): 4 (100% control) | post-emergence herbicidal activity index (Sugar Beet; 0.28 kg/h): 0 (0- 24% control) | post-emergence herbicidal activity index (Sugar Beet; 1.12 kg/h): 0 (0- 24% control) | post-emergence herbicidal activity index (Sugar Beet; 5.6 kg/h): 3 (75-99% control) | post-emergence herbicidal activity index (Canada Thistle [21]; 5.6 kg/h): 0 (0- 24% control) | post-emergence herbicidal activity index (Canada Thistle [21]; 11.2 kg/h): 1 (25-49% control) | post-emergence herbicidal activity index (Downy Brome [22]; Table I, 5.6 kg/h): 2 (50-74% control) | post-emergence herbicidal activity index (Downy Brome [22]; Table I, 11.2 kg/h): 1 (25-49% control) | post-emergence herbicidal activity index (Downy Brome [22]; Table II, 0.28 kg/h): 0 (0- 24% control) | post-emergence herbicidal activity index (Downy Brome [22]; Table II, 1.12 kg/h): 0 (0- 24% control) | post-emergence herbicidal activity index (Downy Brome [22]; Table II, 5.6 kg/h): 2 (50-74% control)
